Among the data in PubChem BioAssay (NCI) are TGI values, retold here.

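Where inhibition never reached the appropriate level, the endpoint shown equals the highest concentration tested. Otherwise, values were interpolated linearly from a five-concentration, 48-hour dose response in 96-well plates. Definition used: TGI = concentration required for complete inhibition of growth.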

Some test systems named below: MCF7 breast; EKVX NSCLC; MDA-MB-435; CAKI-1 renal; PC-3 prostate; MOLT-4 leukemia; A549 NSCLC; UO-31 renal; CCRF-CEM leukemia; K-562 leukemia.
Assay in all cases: NCI anticancer screen, dose series, 48 h

As to `COc1ccc2c(c1)-c1oc3ccccc3c(=O)c1CO2`, the TGI in the test on MCF7 breast is greater than 100 µM; with EKVX NSCLC, greater than 100 µM; in the test with MDA-MB-435, greater than 100 µM; with CAKI-1 renal, 50.6 µM; in the test on PC-3 prostate it was greater than 100 µM; in the test with MOLT-4 leukemia it was greater than 100 µM. Besides, the TGI is greater than 100 µM in the test with A549 NSCLC, 88.4 µM with UO-31 renal, greater than 100 µM in the test with CCRF-CEM leukemia and greater than 100 µM with K-562 leukemia.

As for `N#Cc1nc(/C=C/c2ccccc2)oc1N`, the TGI in the test with MCF7 breast, in the test on EKVX NSCLC, with MDA-MB-435, in the test on CAKI-1 renal, in the test on PC-3 prostate and in the test with MOLT-4 leukemia was greater than 100 µM throughout. For the same molecule, the TGI in the test with A549 NSCLC, in the test with UO-31 renal, with CCRF-CEM leukemia and in the test with K-562 leukemia was greater than 100 µM each time.

Turning to `O=[N+]([O-])c1ccc(Cl)cc1C=NC12CC3CC(CC(C3)C1)C2`, the TGI in the test on MCF7 breast was greater than 100 µM; with EKVX NSCLC, greater than 100 µM; with MDA-MB-435 it was greater than 100 µM; with CAKI-1 renal, greater than 100 µM; in the test on PC-3 prostate it was greater than 100 µM; in the test on MOLT-4 leukemia, 63.4 µM. For the same molecule, the TGI in the test on A549 NSCLC is greater than 100 µM; with UO-31 renal, greater than 100 µM; in the test with CCRF-CEM leukemia it was 35.6 µM; in the test on K-562 leukemia, 43 µM.

`Cc1nnc2sc(N/N=C/c3ccccc3)nn12`: the TGI with MCF7 breast, in the test on EKVX NSCLC, with MDA-MB-435, with CAKI-1 renal, in the test on PC-3 prostate and in the test on MOLT-4 leukemia was greater than 100 µM in each case. Besides, the TGI in the test with A549 NSCLC, in the test with UO-31 renal, in the test with CCRF-CEM leukemia and in the test with K-562 leukemia was greater than 100 µM in each case.

With `CC(=O)NC1=CC(=O)c2cc(C)cc(O)c2C1=O`, the TGI was 7.8 µM with MCF7 breast; 31.7 µM in the test on EKVX NSCLC; 1.96 µM in the test with MDA-MB-435; 42.9 µM in the test with CAKI-1 renal; 40.7 µM with PC-3 prostate; 24.2 µM with MOLT-4 leukemia. Also, the TGI in the test with A549 NSCLC stood at 19 µM; in the test on UO-31 renal, 20 µM; in the test on CCRF-CEM leukemia, 12.9 µM; with K-562 leukemia it was 14.7 µM.

For `COC(=O)c1ccccc1CC(Cc1ccccc1)C(=O)OC` (stereo not given), the TGI in the test on MCF7 breast was greater than 100 µM; in the test on EKVX NSCLC, greater than 100 µM; in the test on MDA-MB-435, greater than 100 µM; with CAKI-1 renal it was greater than 100 µM; in the test on PC-3 prostate it was greater than 100 µM; in the test on MOLT-4 leukemia, 90.7 µM. Further, the TGI in the test on A549 NSCLC, with UO-31 renal, with CCRF-CEM leukemia and with K-562 leukemia was greater than 100 µM throughout.

Regarding `Cc1cccc2c1C/C(=C\c1cccc(C)c1C(=O)O)C2=O`, the TGI in the test with MCF7 breast, in the test on EKVX NSCLC, in the test with MDA-MB-435, in the test with CAKI-1 renal, in the test with PC-3 prostate and with MOLT-4 leukemia was greater than 100 µM throughout. Also, the TGI in the test on A549 NSCLC, in the test with UO-31 renal, in the test on CCRF-CEM leukemia and in the test on K-562 leukemia was greater than 100 µM throughout.

On to `CC(=N\N=C\c1ccccn1)/C(C)=N/N=C(C)/C(C)=N/N=C(C)/C(C)=N/N=C/c1ccccn1`, for which the TGI in the test with MCF7 breast, with EKVX NSCLC, in the test on MDA-MB-435, with CAKI-1 renal, in the test on PC-3 prostate and with MOLT-4 leukemia was greater than 100 µM throughout. For the same molecule, the TGI in the test on A549 NSCLC, in the test on UO-31 renal, with CCRF-CEM leukemia and in the test on K-562 leukemia was greater than 100 µM each time.

`O=C(OCc1ccccc1)N1c2cc([N+](=O)[O-])ccc2C(=O)N2CCC[C@H]2C1O` (stereo not given in full): the TGI in the test with MCF7 breast, in the test on EKVX NSCLC, in the test with MDA-MB-435, with CAKI-1 renal, in the test with PC-3 prostate and with MOLT-4 leukemia was greater than 100 µM each time. Moreover, the TGI in the test with A549 NSCLC, in the test with UO-31 renal, in the test with CCRF-CEM leukemia and in the test on K-562 leukemia was greater than 100 µM each time.

As for `CCOC(=O)C(NCc1cccc(C(F)(F)F)c1)(NC(=O)c1ccccc1)C(F)(F)F` (stereo not given), the TGI with MCF7 breast was greater than 100 µM; in the test with EKVX NSCLC, 83.9 µM; with MDA-MB-435 it was 79 µM; with CAKI-1 renal it was 41.2 µM; in the test with PC-3 prostate, greater than 100 µM; with MOLT-4 leukemia it was greater than 100 µM. Moreover, the TGI is greater than 100 µM in the test on A549 NSCLC, 79.4 µM in the test on UO-31 renal, greater than 100 µM with CCRF-CEM leukemia and greater than 100 µM in the test on K-562 leukemia.

On to `Cc1n(CC(=O)c2ccccc2)nc2sc(N)n[n+]12`, for which the TGI in the test on MCF7 breast, in the test with EKVX NSCLC, in the test on MDA-MB-435, in the test with CAKI-1 renal, with PC-3 prostate and in the test with MOLT-4 leukemia was greater than 100 µM each time. Further, the TGI in the test with A549 NSCLC, in the test on UO-31 renal, in the test on CCRF-CEM leukemia and with K-562 leukemia was greater than 100 µM each time.

In the case of `CCC(C)C1(O)OC2CC3(C)OC(=CC3=O)/C(C)=C\C3OC(=O)C1(C)C32` (stereo not given), the TGI in the test with MCF7 breast was 28.4 µM; with EKVX NSCLC, 32.2 µM; with MDA-MB-435 it was greater than 100 µM; in the test with CAKI-1 renal, 31.5 µM; with PC-3 prostate it was greater than 100 µM; in the test with MOLT-4 leukemia it was greater than 100 µM. Moreover, the TGI in the test with A549 NSCLC was greater than 100 µM; in the test with UO-31 renal, 47.4 µM; in the test on CCRF-CEM leukemia, greater than 100 µM; in the test with K-562 leukemia it was greater than 100 µM.

Regarding `N#Cc1c(N2CCN(c3ccc([N+](=O)[O-])cc3)CC2)[n+](=O)c2ccc(Cl)cc2n1[O-]`, the TGI in the test with MCF7 breast is greater than 33.3 µM; with EKVX NSCLC it was 10.8 µM; with MDA-MB-435, 8.07 µM; with CAKI-1 renal, 2.7 µM; in the test on PC-3 prostate, greater than 36.2 µM; in the test with MOLT-4 leukemia, 8.52 µM. The TGI in the test with A549 NSCLC was greater than 24.4 µM; with UO-31 renal, 5.75 µM; with CCRF-CEM leukemia it was 4.2 µM; in the test with K-562 leukemia, greater than 100 µM.

On to `COc1cc(/C=C/C(=O)OC[C@H](Br)[C@H](OC(C)=O)c2ccc3c(c2)OCO3)cc(OC)c1OC`, for which the TGI with MCF7 breast, in the test with EKVX NSCLC, with MDA-MB-435, in the test on CAKI-1 renal, in the test on PC-3 prostate and in the test with MOLT-4 leukemia was greater than 100 µM throughout. The TGI with A549 NSCLC, with UO-31 renal, in the test on CCRF-CEM leukemia and in the test on K-562 leukemia was greater than 100 µM in each case.

With `CC(C)C(C/C=C1\CC(CO)(COC(=O)CC(C(C)C)C(C)C)OC1=O)C(C)C` (stereo not given), the TGI was 31.3 µM with MCF7 breast; 23.5 µM with EKVX NSCLC; 19.7 µM in the test on MDA-MB-435; 20.3 µM with CAKI-1 renal; 24.6 µM with PC-3 prostate; 21.4 µM in the test with MOLT-4 leukemia. The TGI turned out to be 18.8 µM with A549 NSCLC, 20 µM with UO-31 renal, 36.2 µM with CCRF-CEM leukemia and 19.6 µM in the test with K-562 leukemia.

Take `OCCO[P+]1(OCCO)n2c3ccc2C(c2ccccc2)=C2C=CC(=N2)C(c2ccccc2)=c2ccc(n21)=C(c1ccccc1)C1=NC(=C3c2ccccc2)C=C1`: the TGI is greater than 100 µM in the test on MCF7 breast; 1.04 µM in the test with EKVX NSCLC; 0.132 µM with MDA-MB-435; 2.59 µM in the test with CAKI-1 renal; 1.59 µM in the test on PC-3 prostate; 0.701 µM in the test with MOLT-4 leukemia. For the same molecule, the TGI with A549 NSCLC worked out at 1.93 µM; in the test on UO-31 renal, 4.06 µM; in the test on CCRF-CEM leukemia, 0.252 µM; in the test on K-562 leukemia it was 18 µM.

Regarding `COc1ccc(/C=C2\CN(C)Cc3c2[nH]c(=O)c(C#N)c3-c2ccc(OC)cc2)cc1`, the TGI in the test with MCF7 breast, in the test with EKVX NSCLC, with MDA-MB-435, with CAKI-1 renal, with PC-3 prostate and with MOLT-4 leukemia was greater than 100 µM throughout. In addition, the TGI in the test on A549 NSCLC, with UO-31 renal, with CCRF-CEM leukemia and with K-562 leukemia was greater than 100 µM in each case.
